Where two headings read alike, the source gives them in different places.

We go through 9 compounds from patent US20100240656A1, “COMPOUNDS AS HSP90 INHIBITORS” (ORYZON GENOMICS, S.A., priority 2007, published 2010).

Assay [1] deals with Hsp90 client proteins (c-Raf-1, Cdk4, Her2) and co-chaperone Hsp70. The settings on record: literature (Banerji U. et al.); cited from earlier work.
Assay [2] deals with T1, Hsp90α (Homo sapiens, UniProt P07900).
T1 construct: purchased Stressgen Bioreagents SPP-776
Put plainly: Human Hsp90α fluorescence polarization competition assay with Example 37 tracer. The settings on record: displacement of 50 nM example 37 tracer, 125 nM Hsp90α, 1 h 30 min, 20° C.; read-out: Relative binding affinity values (IC50) obtained from FP measurements. From the text: The aim of this study was to determine the binding ability of compounds of the invention to the N-terminal ATP binding site of Hsp90. For that purpose competition assays with fluorescently labeled Hsp90 binders were used (compounds of examples 37 and 41).
Compounds of examples 37 and 41 are structurally based on 8-(6-Iodo-benzo[1,3]dioxol-5-ylsulfanyl)-9-(3-isopropylamino-propyl)-9H-purin-6-ylamine, a known binder of the N-terminal ATP binding site of Hsp90 which has the ability of inhibiting the Hsp90 function (cf. Chiosis G. et al. “Identification of Potent Water Soluble Purine-Scaffold Inhibitors of the Heat Shock Protein 90”, J. Med. Chem., 2006, vol. 49, no. 1, p. 381). Compounds 37 and 41 keep the essential structural features of the known binder (which means that said compounds are able to bind to the ATP binding site) and incorporate a fluorescent probe which allows the detection of the binding by fluorescence polarization.
When the binders of examples 37 and 41 are used in the competition assay, in a first step said binders are allowed to interact with the N-terminal ATP binding site of Hsp90. Then the compounds of the invention are added and it is determined if they are able to bind to the N-terminal ATP binding site (which will imply that the binders of examples 37 and 41 have been replaced from the N-terminal ATP binding site). If after performing the assay, the binding between the tested compound of the invention and the Hsp90 is observed, this will be indicative that the compound of the invention has been bound to the ATP binding site of Hsp90 and, therefore, can inhibit the Hsp90.
(§1) Once compounds of examples 37 and 41 were synthesized as reported above, they were dissolved at 238 μM and 1 mM in DMSO respectively (Sigma-Aldrich, cat. No. 154938). Hsp90α was purchased from Stressgen Bioreagents (cat. No. SPP-776; Victoria, Canada). The assay buffer contained 100 mM Tris·HCl, pH 7.4, 20 mM KCl, 6 mM MgCl2. Before each use 5 μg/mL bovine serum albumin (BSA, Pierce, Rockford (Ill.), cat No. 23209), 0.25 mM TCEP (Sigma, cat No. 64706) and 0.01% NP40 (Nonidet P40 Substitute, Fluka, cat No. 74385) were freshly added (cf. Howes et al., “A fluorescence polarization assay for inhibitors of Hsp90”, Analytical Biochemistry, 2006, vol. 350, p. 202-213; Kim et al., “Development of a fluorescence polarization assay for the molecular chaperone Hsp90”, J. Biomol. Screen., 2004, vol. 9 (5)).
Fluorescence polarization measurements were performed on an Infinite F200 (Tecan, Austria). Measurements were taken in black 96-well microplates (Corning Costar No. 3650) in which both the excitation and the emission occurred from the top of the wells. In the Infinite F200, a xenon arc lamp provides excitation light that passes through a 485 nm (20-nm bandwidth) excitation filter and then a polarizer filter. A beam splitter filter directs the polarized excitation light into the well, and emitted fluorescence transmits back through the same beam-splitter filter, through a polarizer filter, and then through a 535 nm (25-nm bandwidth) emission filter for detection (Kim et al., supra). The read time per well was 20 μs, and the number of reads per well was 25.
Compounds were assayed over a three-fold dilution series in a 96-well plate format to determine IC50 values. The serial dilution was performed in a separate 96-well plate (Thermowell 96 well PCR plate, Non-Treated Polypropylene, Corning Costar No. 6551) at 50 times final assay concentration in DMSO. (Howes et al, supra). 2 μl of compound was transferred to a black 96-well plate (Corning Costar No. 3650) and 98 μL of reaction solution (100 mM Tris·HCl, pH 7.4, 20 mM KCl, 6 mM MgCl2, 5 μg/mL bovine serum albumin (BSA), 0.25 mM TCEP, 0.01% NP40, 50 nM the compound of example 37, 125 nM Hsp90α) was added per well. The plate was allowed to equilibrate for 1 h 30 min on a slow moving shaker at 20° C. in the dark. […]

Assay [3] concerns HCT-116. Put plainly: Cell growth inhibition by AlamarBlue method, HCT-116. The class given is cell-based. The settings on record: Homo sapiens; HCT-116, 72 hours; read-out: Cell growth inhibition values (EC50) obtained with AlamarBlue method. The protocol: (§2) The human colon cancer cell line HCT-116 and the human breast cell lines MCF-7 and SKBr3 were from the American Type Culture Collection (ATCC; CCL-247, HTB-22 and HTB-30, respectively).
(§3) The HCT-116 and SKBr3 cell lines were maintained in DMEM GlutaMAX (Invitrogen) supplemented with 10% fetal calf serum and the MCF-7 cell line was maintained in RPMI1640 GlutaMAX (Invitrogen) containing 1 mM sodium pyruvate and 10% fetal calf serum. Cells were grown in a humidified incubator at 37° C. in 5% CO2
(§4) Cells were plated in 96-well plates (Costar, 3596) at a density of 6000 cells/well in 50 μL medium 24 h before addition of the compounds. Compounds were then added in 8 concentrations, each in triplicate (dilution series of 1 to 3). To do so, a compound-dilution plate at 200× the screening concentrations was prepared in DMSO 100% (Sigma, 154938). Then, 1.7 μL of the 200× diluted compounds were transferred to a new plate and 170 μL of media were added and mixed with the pipette (plate at 2×). Columns 11 and 12 of this plate (controls) were filled with 1% DMSO in cell media (i.e. 1.7 μL DMSO and 170 μL cell media). Finally, 50 μL of this intermediate plate at 2× were transferred to the plate containing the seeded cells and slowly shaken manually. Cells were grown as described above. AlamarBlue viability assay (Biosource, Invitrogen, DAL1100) was performed 72 hours later following manufacturer's protocol. In brief, AlamarBlue diluted in media was added to cells to have a 5% solution (a 2× solution was prepared in media and 100 μL of this solution were transferred to each well, i.e. final volume of 200 μL). Cells were incubated at 37° C., 3 hours and at room temperature for an additional 30 min. Cells with no compound and, cells with no compound and lysed with triton X-100 (30 μL/well added 10 min before treatment with AlamarBlue) were used as controls (6 replicates of each). Fluorescence was monitored at 530 nm excitation and 590 nm emission wavelengths. Results were quantified using ELx800 Universal Microplate Reader (Bio-Tek Instruments, Inc.). EC50 were calculated as the dose of compound required to inhibit cell growth by 50%.

In assay [4] the test system is MCF-7. Put plainly: Cell growth inhibition by AlamarBlue method, MCF-7. The settings on record: MCF-7, 72 hours, read-out: Cell growth inhibition values (EC50) obtained with AlamarBlue method. In kind it is cell-based, human. As to the method:
as §2, §3, §4
(Resazurin is reduced to fluorescent resorufin, in cell work by metabolically active cells.)

Assay [5] concerns the target T1, Hsp90α. Put plainly: Fluorescence polarization binding isotherms of tracers with Hsp90α. The settings on record: fitted to a 1:1 binding model; read-out: dissociation constant (KD) tracer / Hsp90α. As to the method: as §1
Fluorescence polarization measurements were performed on an Infinite F200 (Tecan, Austria). […] A beam splitter filter directs the polarized excitation light into the well, and emitted fluorescence transmits back through the same beam-splitter filter, through a polarizer filter, and then through a 535 nm (25-nm bandwidth) emission filter for detection (Kim et al., supra). The read time per well was 20 μs, and the number of reads per well was 25. […]

The subject of assay [6] is SKBr3. Put plainly: Cell growth inhibition by AlamarBlue method, SKBr3. In kind it is cell-based. To be noted: Homo sapiens, SK-BR-3; SKBr3, 72 hours; read-out: Cell growth inhibition values (EC50) obtained with AlamarBlue method. The protocol:
as §2, §3, §4

With `C=CCNC1=C2C[C@@H](C)C[C@H](OC)[C@H](O)[C@@H](C)/C=C(\C)[C@H](OC(N)=O)[C@@H](OC)/C=C\C=C(/C)C(=O)NC(=CC1=O)C2=O` [Example 17AAG, 17-Allylamino, 17-Demethoxygeldanamycin], the “effect of Hsp90 inhibitor on client proteins and Hsp70 as described in the literature” value in assay [1] was “promotes degradation of its client proteins and overexpression of the co-chaperone Hsp70”.

The term IC50 denotes the concentration that gives 50% inhibition. For orientation: EC50 means the midpoint of the concentration-response curve. On to `CC(C)NCCCn1c(Sc2cc3c(cc2I)OCO3)nc(C(N)=O)c1N` [Example 33, 5-amino-2-(6-iodo-benzo[1,3]dioxol-5-ylsulfanyl)-1-(3-isopropylamino-propyl)-1H-imidazole-4-carboxamide], for which, in assay [2], the IC50 is 0.5 µM. Moreover, the EC50 in assay [3] is 3 µM; in assay [4] (Homo sapiens, MCF7), 3 µM.

Consider `Cc1cc(C)n2c1C=C1C=CC(CCC(=O)NCCNC(=O)CCCCCn3c(Sc4cc5c(cc4I)OCO5)nc4c(N)ncnc43)=[N+]1[B-]2(F)F` [Example 37, 6-[6-amino-8-(6-iodo-benzol[1,3]dioxol-5-ylsulfanyl)-purin-9-yl]-hexanoic acid 4,4-difluoro-5,7-dimethyl-4-bora-3a,4a-diaza-s-indacene-3-propionylethylenediamide], for which the Kd in assay [5] stood at 0.06 µM.

Take `Nc1ncnc2c1nc(Sc1cc3c(cc1I)OCO3)n2CCCCNC(=O)CCCCCNc1ccc([N+](=O)[O-])c2nonc12` [Example 41, 6-(7-nitro-benzo[1,2,5]oxadiazol-4-ylamino)-hexanoic acid {-4-[6-amino-8-(6-iodo-benzol[1,3]dioxol-5-ylsulfanyl)-purin-9-yl]-butyl}-amide]: in assay [5], the Kd was 0.021 µM.

As to `CC(C)N(CCCn1c(Cc2cc3c(cc2I)OCO3)nc(C(N)=O)c1N)C(=O)OC(C)(C)C` [Example 44, {3-[5-amino-4-carbamoyl-2-(6-iodo-benzol[1,3]dioxol-5-ylmethyl)-imidazol-1-yl]-propyl}-isopropyl-carbamic acid tert-butyl ester], in assay [2], the IC50 is 3.2 µM. In addition, the EC50 in assay [4] was 18.8 µM.

In the case of `CCCCn1c(Sc2nc3cccc(Cl)c3s2)nc(C(N)=O)c1N` [Example 48, 5-amino-1-butyl-2-(7-chloro-benzothiazol-2-ylsulfanyl)-1H-imidazole-4-carboxamide], in assay [2], the IC50 is 2.76 µM. Further, the EC50 in assay [3] amounted to 33 µM; in assay [4] (Homo sapiens, MCF7), 43 µM.

As for `Cn1c(Sc2cc3c(cc2Br)OCC3)nc(C(N)=O)c1N` [Example 97, 5-amino-2-[(6-bromo-2,3-dihydro-1-benzofuran-5-yl)thio]-1-methyl-1H-imidazole-4-carboxamide], the IC50 in assay [2] was found to be 5 µM. Besides, the concentration giving a half-maximal response (EC50) in assay [3] worked out at 70 µM; in assay [6], 41 µM.

Regarding `CCN(CC)CCCn1c(Sc2cc3c(cc2SC)OCO3)nc(C(N)=O)c1N` [Example 98, 5-amino-2-{[6-(methylthio)-1,3-benzodioxol-5-yl]thio}-1-[3-(diethylamino)propyl]-1H-imidazole-4-carboxamide], in assay [2], the IC50 turned out to be 2 µM. In addition, the EC50 in assay [3] is 6 µM; in assay [6], 1.9 µM.

For `CSc1cc2c(cc1Sc1nc(C(N)=O)c(N)n1C)CCO2` [Example 99, 5-amino-2-{[6-(methylthio)-2,3-dihydro-1-benzofuran-5-yl]thio}-methyl-1H-imidazole-4-carboxamide], the IC50 in assay [2] was found to be 13 µM. Moreover, the EC50 turned out to be 85 µM in assay [3] and 55 µM in assay [6].
